Data: US20130096097A1, “PHARMACEUTICAL MULTIMERIC PARTICLES, AND MANUFACTURING METHOD FOR SAME” (JAPAN SCIENCE AND TECHNOLOGY AGENCY, priority 2010, published 2013)

Columns and labels:
[1] = cited from earlier work
[2] = Particle size of dimer nanoparticles in aqueous dispersion made by reprecipitation; type: physicochemical; conditions: 5 mM DMSO solution injected into water at room temperature, final concentration 0.05 mM
Experimental: (§1) Dimer of SN-38 and succinic acid was weighed out to be 5 mM, and dissolved in DMSO 150 μl. Using water as poor solvent, 100 μl of the DMSO solution was injected into water 10 ml with syringe at room temperature, thus aqueous dispersion solution of dimer nanoparticles was prepared. Final concentration of the aqueous dispersion solution was 0.05 mM. The particle size was 50 nm (FIG. 1).
as §1, with “tetramethylene diisocyanate” for “succinic acid”, “in” for “in DMSO”, “μl of DMSO.” for “μl.”, “2).” for “1).”
as §1, with “of betamethasone valerate” for “of SN-38”, “in” for “in DMSO”, “150 μl of DMSO.” for “150 μl.”, “was 150” for “was 50”, “(FIG. 2).” for “(FIG. 1).”

[3] = system: Human liver cancer cell lines HepG2; assay: In vitro anticancer activity, cell viability by Cell Counting Kit-8; type: cell-based; conditions: for anticancer activity against HepG2 (cell viability): 0.15625-10 μM in terms of SN-38 monomer, 48 hours, FIG. 3
Experimental: Human liver cancer cell lines HepG2 was seeded on 96-well plate in 2×10^4 cells/well. Next day, irinotecan, SN-38 bulk crystal, SN-38 diester dimer nanoparticle, and SN-38 diisocyanate dimer nanoparticle were added to the HepG2 cell culture in an amount to be 0.15625, 0.3125, 0.625, 1.25, 2.5, 5 or 10 μM in terms of SN-38 monomer. After cultivating for 48 hours, the cell viability was measured by a colorimetric method using Cell Counting Kit-8 (manufactured by DOJINDO) and microplate reader (manufactured by BIO-RAD). […] In addition, it became obvious that when SN-38 was dimerized via ester bond or urethane bond, or further nanoparticulated, the anticancer activity thereof can be retained (FIG. 3).
Further, two kinds of aqueous dispersion solution of SN-38 dimer nanoparticles were left at room temperature for about one week, thus prepared aging sample.
In FIG. 3 and FIG. 4, there was no difference in the anticancer activity against HepG2 between the binding modes included in the SN-38 dimer nanoparticles, namely, ester bond and urethane bond. That is, both bonds are expected to be decomposed at about the same speed in the solution, and SN-38 monomers are formed. To confirm this, SN-38 is dimerized with low degradable ether bond, further subjected to aging, then studied the anticancer activity against HepG2. The treatment concentration at this time was made 0.1, 1, 10 μM in terms of SN-38.

CC[C@@]1(O)C(=O)OCc2c1cc1n(c2=O)Cc2cc3ccccc3nc2-1 [Camptothecin]
water-solubility [1]: extremely insoluble in water

CCc1c2c(nc3ccc(OC(=O)CCC(=O)Oc4ccc5nc6c(c(CC)c5c4)Cn4c-6cc5c(c4=O)COC(=O)C5(O)CC)cc13)-c1cc3c(c(=O)n1C2)COC(=O)C3(O)CC (centres unmarked) [Compound 18-(b), succinic acid bis(7-ethylcamptothecin-10-yl)ester]
particle size [2]: 50 nm | anticancer activity against HepG2 (cell viability) [3]: remarkable anticancer activity

CCc1c2c(nc3ccc(OC(=O)NCCCCNC(=O)Oc4ccc5nc6c(c(CC)c5c4)Cn4c-6cc5c(c4=O)COC(=O)C5(O)CC)cc13)-c1cc3c(c(=O)n1C2)COC(=O)C3(O)CC (centres unmarked) [Compound 18-(c), butylene bis(7-ethylcamptothecin-10-yl)amide]
particle size [2]: 50 nm | anticancer activity against HepG2 (cell viability) [3]: remarkable anticancer activity

CCc1c2c(nc3ccc(OC/C=C/COc4ccc5nc6c(c(CC)c5c4)Cn4c-6cc5c(c4=O)COC(=O)C5(O)CC)cc13)-c1cc3c(c(=O)n1C2)COC(=O)C3(O)CC (centres unmarked) [Compound 18-(d), bis(7-ethylcamptothecin-10-oxy)2-buten ether]
anticancer activity against HepG2 ([3]; 0.1, 1, 10 μM in terms of SN-38, FIG. 5): almost disappeared | aging effect on anticancer activity against HepG2 ([3]; 0.1, 1, 10 μM in terms of SN-38, aged sample, FIG. 5): little

CCCCC(=O)O[C@]1(C(=O)COC(=O)CCC(=O)OCC(=O)[C@@]2(OC(=O)CCCC)[C@@H](C)C[C@H]3[C@@H]4CCC5=CC(=O)C=C[C@]5(C)[C@@]4(F)[C@@H](O)C[C@@]32C)[C@@H](C)C[C@H]2[C@@H]3CCC4=CC(=O)C=C[C@]4(C)[C@@]3(F)[C@@H](O)C[C@@]21C [Compound 19-(b)]
particle size [2]: 150 nm

CCc1c2c(nc3ccc(O)cc13)-c1cc3c(c(=O)n1C2)COC(=O)[C@]3(O)CC [SN-38, 10-hydroxy-7-ethylcamptothecin, reference compound]
anticancer activity against HepG2 (cell viability) [3]: remarkable anticancer activity | water-solubility [1]: extremely poor

CCc1c2c(nc3ccc(OC(=O)N4CCC(N5CCCCC5)CC4)cc13)-c1cc3c(c(=O)n1C2)COC(=O)[C@]3(O)CC [irinotecan, 7-ethyl-10-[4-(1-piperidino)-1-piperidino]carbonyloxycamptothecin, reference compound]
anticancer activity against HepG2 (cell viability) [3]: almost no anticancer activity
